One experiment relates to A2780 cells. Put plainly: In-Vitro Cell Proliferation Assay (SRB). It counts as cell-based. The protocol:
In-Vitro Cell Proliferation Assay […] After overnight incubation at 37° C. and 5% CO2, the compound titrations were performed in a separate dilution plate by serially diluting the compounds in DMSO to make a 1000× stock. The compounds were then further diluted to 10× final concentration in culture media, whereupon 20 μL of each dilution was added to the plated cells with controls (e.g. DMSO and blank) to make a final volume of 200 μL. The final DMSO concentration in each well was 0.1%. The plates were then incubated for 72 hours at 37° C. in a 5% CO2 incubator. The number of viable cells was then assessed using sulforhodamine B (SRB) assay. Cells were fixed at 4° C. for 1 hour with the addition of 50 μL 30% trichloroacetic acid (TCA) to make a final concentration of 6% TCA. The plates were washed four times with H2O and allowed to dry for at least 1 hour, whereupon 100 μL of a […] SRB in 1% acetic acid solution was added to each well and incubated at room temperature for at least 30 minutes. The plates were then washed three times with 1% acetic acid, dried, and treated with 100 μL of 10 mM Tris-Base solution. The plates were then read in a microplate reader at an absorbance of 570 nm. Background was generated on a separate plate with media only. Method for Determining % Inhibition First, the signals from the background plate are averaged, then the background was subtracted from the test plates. […] Formula for Determining IC50 Values: […] Specificity of Cytotoxicity. Inhibition of NAMPT could be reversed by the addition of NAM or NMN. The specificity of the compounds were determined via cell viability assay in the presence of the compound and either NAM or NMN. Percent inhibitions were determined using the method given above.

The target of a further experiment is NAMPT (Homo sapiens (Human), UniProt P43490). Nature of the experiment: Biochemical Inhibition Assay (NAMPT enzymatic reaction, NMN by mass spectrometry). The settings on record: recombinant His-tagged NAMPT 33 nM, 1 μM NAM, 30 minutes; read-out: Biochem IC50. The protocol:
Biochemical Inhibition Assay NAMPT Protein Purification Recombinant His-tagged NAMPT was produced in E. coli cells, purified over a Ni column, and further purified over a size-exclusion column by XTAL Biostructures. The NAMPT Enzymatic Reaction The NAMPT enzymatic reactions were carried out in Buffer A (50 mM Hepes pH 7.5, 50 mM NaCl, 5 mM MgCl2, and 1 mM THP) in 96-well V-bottom plates. The compound titrations were performed in a separate dilution plate by serially diluting the compounds in DMSO to make a 100× stock. […] Background and signal strength was determined by addition (or non-addition) of a serial dilution of NMN to a pre-quenched enzyme and cofactor mix. Quantification of NMN A mass spectrometry-based assay was used to measure the NAMPT reaction product (NMN) and the internal control (L-Cystathionine). NMN and L-Cystathionine were detected using the services of Biocius Lifesciences with the RapidFire system. In short, the NMN and L-Cystathionine are bound to a graphitic carbon cartridge in 0.1% formic acid, eluted in 30% acetonitrile buffer, and injected into a Sciex 4000 mass spectrometer. The components of the sample were ionized with electrospray ionization and the positive ions were detected. […] The fragments are quantified and the analyzed by the following method. % Inhibitions are Determined Using this Method. First the NMN signal is normalized to the L-Cystathionine signal by dividing the NMN signal by the L-Cystathionine signal for each well. The signal from the background wells are averaged and subtracted from the test plates. […] IC50s are Determined Using Excel and this Formula.

For 13 compounds, IC50 results are on record in patent US9676721B2, “Compounds and compositions for the inhibition of NAMPT” (FORMA TM, LLC, priority 2010, dated 2017).

Chain of NAMPT (P43490 whole entry): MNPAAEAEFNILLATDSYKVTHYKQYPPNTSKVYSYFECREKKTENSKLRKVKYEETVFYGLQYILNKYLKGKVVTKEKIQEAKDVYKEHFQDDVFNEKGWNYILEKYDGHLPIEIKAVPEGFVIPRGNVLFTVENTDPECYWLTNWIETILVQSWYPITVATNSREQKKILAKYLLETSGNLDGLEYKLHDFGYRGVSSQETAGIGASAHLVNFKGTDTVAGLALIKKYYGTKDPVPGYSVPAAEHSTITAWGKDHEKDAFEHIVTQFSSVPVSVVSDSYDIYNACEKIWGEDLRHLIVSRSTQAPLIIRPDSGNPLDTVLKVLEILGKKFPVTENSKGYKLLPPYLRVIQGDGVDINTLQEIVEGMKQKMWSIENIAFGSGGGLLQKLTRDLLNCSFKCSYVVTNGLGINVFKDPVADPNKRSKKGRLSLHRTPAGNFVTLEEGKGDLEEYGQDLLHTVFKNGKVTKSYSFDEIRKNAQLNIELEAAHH

`Cc1ccc(S(=O)(=O)c2ccc(CN/C(=N\C#N)Nc3ccncc3)cc2)cc1` [2-cyano-1-({4-[(4-methylbenzene)sulfonyl]phenyl}methyl)-3-(pyridin-4-yl)guanidine]: the IC50 was 2.6 nM in the experiment with A2780 cells (Homo sapiens, A2780, 72 h) and 2.5 nM on NAMPT.

For the compound `Cc1ccc(F)cc1S(=O)(=O)c1ccc(CNC(=NC#N)Nc2ccncc2)cc1` [2-cyano-1-({4-[(5-fluoro-2-methylbenzene)sulfonyl]phenyl}methyl)-3-(pyridin-4-yl)guanidine], the IC50 came to 3.3 nM with A2780 cells (Homo sapiens, A2780, 72 h) and 4.5 nM at NAMPT.

As for `N#CN=C(NCc1ccc(S(=O)(=O)c2ccccc2CN2CCOCC2)cc1)Nc1ccncc1` [2-cyano-1-[(4-{[2-(morpholin-4-ylmethyl)benzene]sulfonyl}phenyl)methyl]-3-(pyridin-4-yl)guanidine], the IC50 turned out to be 7.5 nM with A2780 cells (Homo sapiens, A2780, 72 h) and 11.7 nM at NAMPT.

For the compound `COc1cc(C(F)(F)F)ccc1S(=O)(=O)c1ccc(CNC(=NC#N)Nc2ccncc2)cc1` [2-cyano-1-[(4-{[2-methoxy-4-(trifluoromethyl)benzene]sulfonyl}phenyl)methyl]-3-(pyridin-4-yl)guanidine], the IC50 in the experiment on A2780 cells (Homo sapiens, A2780, 72 h) came to 6 nM; at NAMPT, 5.7 nM.

`COc1ccc(C(C)C)cc1S(=O)(=O)c1ccc(CNC(=NC#N)Nc2ccncc2)cc1` [2-cyano-1-[(4-{[2-methoxy-5-(propan-2-yl)benzene]sulfonyl}phenyl)methyl]-3-(pyridin-4-yl)guanidine]: the IC50 in the experiment on A2780 cells (Homo sapiens, A2780, 72 h) turned out to be 3.5 nM; at NAMPT it was 5.3 nM.

In the case of `N#CN=C(NCc1ccc(S(=O)(=O)c2cccc(-n3cccn3)c2)cc1)Nc1ccncc1` [2-cyano-1-[(4-{[3-(1H-pyrazol-1-yl)benzene]sulfonyl}phenyl)methyl]-3-(pyridin-4-yl)guanidine], the IC50 amounted to 2.9 nM in the experiment on A2780 cells (Homo sapiens, A2780, 72 h) and 3.5 nM on NAMPT.

For the compound `CN(C)S(=O)(=O)c1cccc(S(=O)(=O)c2ccc(CNC(=NC#N)Nc3ccncc3)cc2)c1` [2-cyano-1-[(4-{[3-(dimethylsulfamoyl)benzene]sulfonyl}phenyl)methyl]-3-(pyridin-4-yl)guanidine], the IC50 in the experiment on A2780 cells (Homo sapiens, A2780, 72 h) came out at 6.1 nM; at NAMPT, 1.3 nM.

Turning to `CCS(=O)(=O)c1cccc(S(=O)(=O)c2ccc(CNC(=NC#N)Nc3ccncc3)cc2)c1` [2-cyano-1-[(4-{[3-(ethanesulfonyl)benzene]sulfonyl}phenyl)methyl]-3-(pyridin-4-yl)guanidine], the figures for the IC50 in the experiment with A2780 cells (72 hours) and on NAMPT were 13.3 nM and 1.8 nM, respectively.

`COCc1cccc(S(=O)(=O)c2ccc(CNC(=NC#N)Nc3ccncc3)cc2)c1` [2-cyano-1-[(4-{[3-(methoxymethyl)benzene]sulfonyl}phenyl)methyl]-3-(pyridin-4-yl)guanidine]: the IC50 in the experiment on A2780 cells (Homo sapiens, A2780, 72 h) was found to be 5.9 nM; on NAMPT, 7.2 nM.

For `CC(C)c1cccc(S(=O)(=O)c2ccc(CNC(=NC#N)Nc3ccncc3)cc2)c1` [2-cyano-1-[(4-{[3-(propan-2-yl)benzene]sulfonyl}phenyl)methyl]-3-(pyridin-4-yl)guanidine], the IC50 was 1.1 nM in the experiment on A2780 cells (Homo sapiens, A2780, 72 h) and 2.9 nM at NAMPT.

For `CC(C)Oc1cccc(S(=O)(=O)c2ccc(CNC(=NC#N)Nc3ccncc3)cc2)c1` [2-cyano-1-[(4-{[3-(propan-2-yloxy)benzene]sulfonyl}phenyl)methyl]-3-(pyridin-4-yl)guanidine], the IC50 came out at 5.7 nM in the experiment with A2780 cells (Homo sapiens, A2780, 72 h) and 3.2 nM on NAMPT.

`CCCS(=O)(=O)Nc1cccc(S(=O)(=O)c2ccc(CNC(=NC#N)Nc3ccncc3)cc2)c1` [2-cyano-1-[(4-{[3-(propane-1-sulfonamido)benzene]sulfonyl}phenyl)methyl]-3-(pyridin-4-yl)guanidine]: the IC50 came out at 23.3 nM in the experiment with A2780 cells (Homo sapiens, A2780, 72 h) and 2.1 nM on NAMPT.

Turning to `N#CN=C(NCc1ccc(S(=O)(=O)c2ccc(OCC(F)(F)F)c(F)c2)cc1)Nc1ccncc1` [2-cyano-1-[(4-{[3-fluoro-4-(2,2,2-trifluoroethoxy)benzene]sulfonyl}phenyl)methyl]-3-(pyridin-4-yl)guanidine], the IC50 with A2780 cells (Homo sapiens, A2780, 72 h) amounted to 5.9 nM; on NAMPT it was 5.1 nM.
